ChEMBL document CHEMBL1201862, “PubChem BioAssay data set” (2004)
The source made the active and inactive calls.

Legend:
HEK293 [1] = test: cells; conditions: Homo sapiens
HEK293 [2] = test: cells; conditions: Homo sapiens; remark: listed apart in the source
Beta-galactosidase = Beta-galactosidase (Escherichia coli, UniProt Q8VNN2); test: PubChem AID 485352; assay type: functional
[3] = biological target: Type-1 angiotensin II receptor (Homo sapiens, UniProt P30556); test: antagonism of angiotensin II type 1 receptor – cell-based, uHTS hits, selectivity assay for APJ receptor antagonist project, dose response (AID 463214); assay type: functional;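 also: antagonist potency against angiotensin II stimulated AT1 response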
[4] = biological target: Beta-2 adrenergic receptor (Homo sapiens, UniProt P07550); test: ADRB2 activation measured by internalization – cell-based, FAP fluorogen, flow cytometry, cherry pick 1, dose response (AID 588763); assay type: functional
[5] = biological target: Glycogen synthase kinase-3 alpha (Homo sapiens, UniProt P49840); test: Inhibition of Human GSK-3 alpha Activity Measured in Biochemical System Using Microfluidics - 2063-06_Inhibitor_Dose_DryPowder_Activity. [Related pubchem assays (depositor defined):AID2709]
[6] = luciferase reporter signal suppression in cells – H4 neuroglioma cells, luminescence, dose response (AID 1990); assay type: functional, cell-based
[7] = biological target: Glycogen synthase kinase-3 beta (Homo sapiens, UniProt P49841); test: Inhibition of Human GSK-3 beta Activity Measured in Biochemical System Using Microfluidics - 2063-05_Inhibitor_Dose_DryPowder_Activity. [Related pubchem assays (depositor defined):AID2709]
[8] = alpha-synuclein stem-loop luciferase translation blockers – H4 neuroglioma cells, luminescence, confirmation (AID 1988); assay type: functional, cell-based
[9] = Luminescence Cell-Based Dose Response HTS to Identify Inhibitors of 5'UTR Stem-Loop Driven Prion Protein mRNA Translation in H4 Neuroglioblastoma Cells. [Related pubchem assays: 1827 (Project Summary), 1813 (Primary HTS)]; assay type: functional
Cytochrome P450 2D6 = Cytochrome P450 2D6 (Homo sapiens, UniProt P10635);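 also: CYP2D6 member of a cytochrome P450 panel assay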
Cytochrome P450 1A2 = biological target: T1, Cytochrome P450 1A2 (Homo sapiens, UniProt P05177);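 also: PubChem cytochrome P450 panel assay, CYP1A2 panel member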
T1 sequence (P05177 whole entry): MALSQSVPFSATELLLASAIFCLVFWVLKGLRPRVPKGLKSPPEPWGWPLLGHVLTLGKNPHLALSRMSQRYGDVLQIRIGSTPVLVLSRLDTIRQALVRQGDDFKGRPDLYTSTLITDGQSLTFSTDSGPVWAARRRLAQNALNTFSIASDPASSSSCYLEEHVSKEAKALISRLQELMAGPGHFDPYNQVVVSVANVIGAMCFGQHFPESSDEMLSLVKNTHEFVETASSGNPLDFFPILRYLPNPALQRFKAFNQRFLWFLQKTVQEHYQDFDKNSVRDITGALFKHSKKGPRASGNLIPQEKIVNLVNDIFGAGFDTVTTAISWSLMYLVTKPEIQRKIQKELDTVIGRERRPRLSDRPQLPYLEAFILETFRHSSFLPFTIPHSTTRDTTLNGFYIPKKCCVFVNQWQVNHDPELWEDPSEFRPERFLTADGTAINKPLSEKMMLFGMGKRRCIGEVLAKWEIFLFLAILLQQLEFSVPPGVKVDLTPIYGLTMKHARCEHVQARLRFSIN

[10] = biological target: T2, Histone-lysine N-methyltransferase NSD2 (Homo sapiens, UniProt O96028); assay type: biochemical
T2 sequence (O96028 whole entry): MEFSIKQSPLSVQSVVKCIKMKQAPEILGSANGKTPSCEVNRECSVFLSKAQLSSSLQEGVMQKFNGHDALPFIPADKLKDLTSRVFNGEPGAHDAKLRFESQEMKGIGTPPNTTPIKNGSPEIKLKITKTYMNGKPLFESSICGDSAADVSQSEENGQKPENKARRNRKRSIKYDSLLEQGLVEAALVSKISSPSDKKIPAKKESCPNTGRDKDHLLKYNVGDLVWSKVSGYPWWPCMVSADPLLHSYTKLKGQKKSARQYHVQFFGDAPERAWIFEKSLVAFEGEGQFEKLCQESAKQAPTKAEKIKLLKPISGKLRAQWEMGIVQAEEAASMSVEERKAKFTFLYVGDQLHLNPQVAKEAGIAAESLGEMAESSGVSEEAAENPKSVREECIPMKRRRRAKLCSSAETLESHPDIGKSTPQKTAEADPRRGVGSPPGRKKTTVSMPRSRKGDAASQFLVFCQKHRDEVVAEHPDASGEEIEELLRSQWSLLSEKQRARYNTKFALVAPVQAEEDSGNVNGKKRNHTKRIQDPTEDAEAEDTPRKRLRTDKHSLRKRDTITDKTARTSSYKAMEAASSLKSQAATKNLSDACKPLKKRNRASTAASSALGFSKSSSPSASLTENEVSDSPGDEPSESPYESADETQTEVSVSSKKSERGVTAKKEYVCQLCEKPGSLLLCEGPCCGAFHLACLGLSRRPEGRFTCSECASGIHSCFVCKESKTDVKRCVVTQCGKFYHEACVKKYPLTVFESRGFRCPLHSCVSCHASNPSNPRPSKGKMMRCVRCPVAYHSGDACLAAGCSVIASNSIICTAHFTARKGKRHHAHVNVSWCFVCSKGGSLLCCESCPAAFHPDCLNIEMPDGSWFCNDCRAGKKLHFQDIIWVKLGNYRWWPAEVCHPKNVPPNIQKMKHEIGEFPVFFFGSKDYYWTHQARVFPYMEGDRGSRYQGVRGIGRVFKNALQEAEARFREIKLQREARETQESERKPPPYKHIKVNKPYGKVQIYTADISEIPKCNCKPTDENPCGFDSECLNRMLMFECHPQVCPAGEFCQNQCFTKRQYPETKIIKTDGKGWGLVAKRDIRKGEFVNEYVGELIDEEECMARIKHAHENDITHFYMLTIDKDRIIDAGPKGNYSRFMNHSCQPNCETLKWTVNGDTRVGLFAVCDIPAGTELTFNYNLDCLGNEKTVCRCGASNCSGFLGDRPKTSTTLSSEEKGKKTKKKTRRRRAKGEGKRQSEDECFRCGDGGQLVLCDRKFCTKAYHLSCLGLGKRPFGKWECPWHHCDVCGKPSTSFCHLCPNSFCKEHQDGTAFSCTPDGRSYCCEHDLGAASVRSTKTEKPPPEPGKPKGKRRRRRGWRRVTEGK

Phospholipase D2 = Phospholipase D2 (Homo sapiens, UniProt O14939); test: cellular phospholipase D2 inhibition IC50 – cell-based, dose response (AID 602147); assay type: functional;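 also: cellular assay in HEK293 cells overexpressing GFP-tagged PLD2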
Phospholipase D1 = biological target: T3, Phospholipase D1 (Homo sapiens, UniProt Q13393); test: cellular phospholipase D1 inhibition IC50 – cell-based, dose response (AID 602151); assay type: functional;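 also: cellular PLD1 assay in Calu-1 cells stimulated with PMA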
T3 sequence (Q13393 whole entry): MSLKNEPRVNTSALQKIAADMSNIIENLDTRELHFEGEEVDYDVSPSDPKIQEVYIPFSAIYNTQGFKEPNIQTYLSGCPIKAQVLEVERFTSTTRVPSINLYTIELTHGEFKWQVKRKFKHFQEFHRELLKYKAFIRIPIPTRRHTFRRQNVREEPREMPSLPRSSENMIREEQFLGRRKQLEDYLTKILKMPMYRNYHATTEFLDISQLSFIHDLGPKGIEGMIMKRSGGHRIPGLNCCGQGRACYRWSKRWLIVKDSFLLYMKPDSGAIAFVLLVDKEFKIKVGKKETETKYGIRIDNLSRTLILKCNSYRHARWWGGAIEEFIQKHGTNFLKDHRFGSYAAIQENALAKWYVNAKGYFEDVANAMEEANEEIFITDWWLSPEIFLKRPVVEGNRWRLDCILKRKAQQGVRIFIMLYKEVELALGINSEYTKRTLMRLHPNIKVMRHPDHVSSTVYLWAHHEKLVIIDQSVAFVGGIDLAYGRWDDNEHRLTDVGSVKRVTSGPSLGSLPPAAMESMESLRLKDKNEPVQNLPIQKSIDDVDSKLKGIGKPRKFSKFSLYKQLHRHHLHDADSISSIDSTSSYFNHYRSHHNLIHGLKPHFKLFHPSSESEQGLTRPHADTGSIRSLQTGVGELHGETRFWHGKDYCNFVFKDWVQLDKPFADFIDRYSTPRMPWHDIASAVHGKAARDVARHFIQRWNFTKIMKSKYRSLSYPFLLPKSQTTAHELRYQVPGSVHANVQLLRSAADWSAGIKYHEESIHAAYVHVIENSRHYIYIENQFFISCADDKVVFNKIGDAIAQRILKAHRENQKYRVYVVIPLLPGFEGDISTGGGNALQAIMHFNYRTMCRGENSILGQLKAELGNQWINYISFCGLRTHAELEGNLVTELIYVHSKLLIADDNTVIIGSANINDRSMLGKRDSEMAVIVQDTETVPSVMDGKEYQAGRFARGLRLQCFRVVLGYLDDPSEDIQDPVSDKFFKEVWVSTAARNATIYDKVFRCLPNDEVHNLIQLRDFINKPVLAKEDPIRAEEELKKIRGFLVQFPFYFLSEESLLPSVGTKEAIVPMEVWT

Hexokinase HKDC1 = biological target: T4, Hexokinase HKDC1 (Homo sapiens, UniProt Q2TB90); test: SAR analysis of small molecule inhibitors of hexokinase domain containing I (HKDC1). [Related pubchem assays (depositor defined):AID493160, AID493190]; assay type: functional
T4 sequence (Q2TB90 whole entry): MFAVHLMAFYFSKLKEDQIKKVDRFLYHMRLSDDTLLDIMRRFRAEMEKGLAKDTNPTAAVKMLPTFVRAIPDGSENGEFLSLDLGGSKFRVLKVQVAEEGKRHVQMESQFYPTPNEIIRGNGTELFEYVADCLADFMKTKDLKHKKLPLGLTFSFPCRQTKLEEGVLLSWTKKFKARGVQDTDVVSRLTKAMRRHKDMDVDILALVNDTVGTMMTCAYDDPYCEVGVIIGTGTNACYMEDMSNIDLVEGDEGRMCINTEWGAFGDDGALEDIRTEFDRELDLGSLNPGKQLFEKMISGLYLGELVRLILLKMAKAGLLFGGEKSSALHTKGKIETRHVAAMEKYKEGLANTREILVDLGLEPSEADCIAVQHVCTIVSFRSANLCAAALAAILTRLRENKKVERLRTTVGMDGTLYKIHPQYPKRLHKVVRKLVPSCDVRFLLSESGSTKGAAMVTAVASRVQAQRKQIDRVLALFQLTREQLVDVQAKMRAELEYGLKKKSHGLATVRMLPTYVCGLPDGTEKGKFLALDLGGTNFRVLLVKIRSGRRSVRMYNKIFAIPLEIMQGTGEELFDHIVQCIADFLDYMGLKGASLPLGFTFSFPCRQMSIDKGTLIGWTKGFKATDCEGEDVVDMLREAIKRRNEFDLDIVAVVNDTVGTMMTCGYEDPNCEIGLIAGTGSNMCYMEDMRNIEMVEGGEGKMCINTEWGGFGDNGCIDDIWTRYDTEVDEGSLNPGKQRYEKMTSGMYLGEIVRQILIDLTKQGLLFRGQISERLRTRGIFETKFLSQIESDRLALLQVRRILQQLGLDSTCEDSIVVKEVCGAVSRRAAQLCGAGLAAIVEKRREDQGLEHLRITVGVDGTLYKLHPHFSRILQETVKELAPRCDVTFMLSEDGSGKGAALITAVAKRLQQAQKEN

Hexokinase-1 = Hexokinase-1 (Homo sapiens, UniProt P19367); test: SAR analysis of small molecule inhibitors of hexokinase domain containing I (HKDC1) in the hexokinase 1 selectivity assay. [Related pubchem assays (depositor defined):AID493160, AID493190]; assay type: functional
[11] = biological target: Dual specificity tyrosine-phosphorylation-regulated kinase 1A (Rattus norvegicus, UniProt Q63470); assay type: biochemical, Homo sapiens

Chain of Beta-galactosidase (Q8VNN2 whole entry): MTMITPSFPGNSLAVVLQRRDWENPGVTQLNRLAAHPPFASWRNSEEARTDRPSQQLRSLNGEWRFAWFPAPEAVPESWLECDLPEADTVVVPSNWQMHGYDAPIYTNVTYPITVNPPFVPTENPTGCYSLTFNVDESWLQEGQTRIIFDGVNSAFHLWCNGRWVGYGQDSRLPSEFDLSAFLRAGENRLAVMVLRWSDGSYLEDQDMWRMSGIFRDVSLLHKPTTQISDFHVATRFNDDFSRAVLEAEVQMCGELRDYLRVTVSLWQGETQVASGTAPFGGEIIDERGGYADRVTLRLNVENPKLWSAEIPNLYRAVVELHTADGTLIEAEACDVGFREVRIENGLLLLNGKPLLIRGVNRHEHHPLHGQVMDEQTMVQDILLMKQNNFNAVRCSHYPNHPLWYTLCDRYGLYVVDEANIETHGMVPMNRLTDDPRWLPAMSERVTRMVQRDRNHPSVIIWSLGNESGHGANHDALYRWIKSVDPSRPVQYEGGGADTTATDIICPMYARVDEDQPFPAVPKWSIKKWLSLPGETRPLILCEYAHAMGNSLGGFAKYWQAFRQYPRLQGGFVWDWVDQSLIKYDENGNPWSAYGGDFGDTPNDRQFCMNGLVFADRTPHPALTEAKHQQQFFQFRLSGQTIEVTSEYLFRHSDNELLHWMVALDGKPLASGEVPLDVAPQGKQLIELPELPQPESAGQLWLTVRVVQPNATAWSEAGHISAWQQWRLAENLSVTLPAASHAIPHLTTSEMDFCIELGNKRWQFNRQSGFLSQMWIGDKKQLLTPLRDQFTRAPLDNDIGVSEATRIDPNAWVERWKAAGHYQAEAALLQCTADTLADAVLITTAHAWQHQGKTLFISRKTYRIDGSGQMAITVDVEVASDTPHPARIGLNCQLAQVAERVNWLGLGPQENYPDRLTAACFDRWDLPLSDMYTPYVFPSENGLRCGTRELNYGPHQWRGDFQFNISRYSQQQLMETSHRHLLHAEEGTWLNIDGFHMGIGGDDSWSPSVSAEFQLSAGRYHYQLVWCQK
Chain of Type-1 angiotensin II receptor (P30556 whole entry): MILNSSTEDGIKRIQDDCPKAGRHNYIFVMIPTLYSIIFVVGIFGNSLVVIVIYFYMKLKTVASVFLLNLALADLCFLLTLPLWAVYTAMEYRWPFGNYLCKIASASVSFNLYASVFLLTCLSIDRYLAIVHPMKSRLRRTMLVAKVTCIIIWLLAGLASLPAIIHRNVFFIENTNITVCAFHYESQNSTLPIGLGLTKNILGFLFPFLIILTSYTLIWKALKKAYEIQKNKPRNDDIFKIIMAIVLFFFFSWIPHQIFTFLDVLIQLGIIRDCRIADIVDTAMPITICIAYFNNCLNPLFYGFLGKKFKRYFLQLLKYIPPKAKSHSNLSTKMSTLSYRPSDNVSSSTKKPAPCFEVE
Chain of Glycogen synthase kinase-3 alpha (P49840 whole entry): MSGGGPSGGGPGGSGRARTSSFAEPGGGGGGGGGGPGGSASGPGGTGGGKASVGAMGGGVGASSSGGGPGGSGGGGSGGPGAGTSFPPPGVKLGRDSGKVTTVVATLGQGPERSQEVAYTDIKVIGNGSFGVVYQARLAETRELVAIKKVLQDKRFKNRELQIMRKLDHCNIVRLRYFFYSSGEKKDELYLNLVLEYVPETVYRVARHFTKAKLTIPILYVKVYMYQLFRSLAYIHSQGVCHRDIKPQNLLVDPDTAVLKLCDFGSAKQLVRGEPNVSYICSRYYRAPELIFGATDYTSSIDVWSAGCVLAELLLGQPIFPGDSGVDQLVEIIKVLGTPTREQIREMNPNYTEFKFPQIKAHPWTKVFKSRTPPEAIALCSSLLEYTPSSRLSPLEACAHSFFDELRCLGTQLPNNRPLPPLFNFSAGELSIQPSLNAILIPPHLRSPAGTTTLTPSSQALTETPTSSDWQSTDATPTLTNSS
Chain of Hexokinase-1 (P19367 whole entry, the tested form may be a part): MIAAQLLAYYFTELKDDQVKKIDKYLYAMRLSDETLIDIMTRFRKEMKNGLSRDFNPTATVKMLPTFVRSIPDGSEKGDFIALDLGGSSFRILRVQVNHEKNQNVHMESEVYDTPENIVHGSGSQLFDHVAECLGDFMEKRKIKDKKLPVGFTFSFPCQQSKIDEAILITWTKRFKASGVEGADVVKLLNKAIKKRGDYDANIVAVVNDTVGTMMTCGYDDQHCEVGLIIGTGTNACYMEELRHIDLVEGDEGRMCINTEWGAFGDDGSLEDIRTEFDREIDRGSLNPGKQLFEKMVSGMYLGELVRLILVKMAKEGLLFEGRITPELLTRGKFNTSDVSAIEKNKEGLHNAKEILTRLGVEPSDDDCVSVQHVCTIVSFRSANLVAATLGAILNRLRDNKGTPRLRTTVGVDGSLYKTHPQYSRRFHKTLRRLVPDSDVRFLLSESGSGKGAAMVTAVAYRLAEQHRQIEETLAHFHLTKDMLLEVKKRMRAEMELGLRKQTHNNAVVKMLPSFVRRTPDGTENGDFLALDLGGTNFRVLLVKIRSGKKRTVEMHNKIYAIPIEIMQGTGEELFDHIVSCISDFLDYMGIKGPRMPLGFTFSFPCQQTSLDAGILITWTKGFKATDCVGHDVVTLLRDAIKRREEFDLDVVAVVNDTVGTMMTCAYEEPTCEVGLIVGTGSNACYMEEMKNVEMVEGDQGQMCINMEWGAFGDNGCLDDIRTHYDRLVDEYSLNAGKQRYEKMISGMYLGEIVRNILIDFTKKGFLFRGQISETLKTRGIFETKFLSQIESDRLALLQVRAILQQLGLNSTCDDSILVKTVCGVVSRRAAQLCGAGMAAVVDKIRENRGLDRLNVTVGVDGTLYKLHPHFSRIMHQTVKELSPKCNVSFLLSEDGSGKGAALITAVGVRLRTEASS
Chain of Phospholipase D2 (O14939 whole entry): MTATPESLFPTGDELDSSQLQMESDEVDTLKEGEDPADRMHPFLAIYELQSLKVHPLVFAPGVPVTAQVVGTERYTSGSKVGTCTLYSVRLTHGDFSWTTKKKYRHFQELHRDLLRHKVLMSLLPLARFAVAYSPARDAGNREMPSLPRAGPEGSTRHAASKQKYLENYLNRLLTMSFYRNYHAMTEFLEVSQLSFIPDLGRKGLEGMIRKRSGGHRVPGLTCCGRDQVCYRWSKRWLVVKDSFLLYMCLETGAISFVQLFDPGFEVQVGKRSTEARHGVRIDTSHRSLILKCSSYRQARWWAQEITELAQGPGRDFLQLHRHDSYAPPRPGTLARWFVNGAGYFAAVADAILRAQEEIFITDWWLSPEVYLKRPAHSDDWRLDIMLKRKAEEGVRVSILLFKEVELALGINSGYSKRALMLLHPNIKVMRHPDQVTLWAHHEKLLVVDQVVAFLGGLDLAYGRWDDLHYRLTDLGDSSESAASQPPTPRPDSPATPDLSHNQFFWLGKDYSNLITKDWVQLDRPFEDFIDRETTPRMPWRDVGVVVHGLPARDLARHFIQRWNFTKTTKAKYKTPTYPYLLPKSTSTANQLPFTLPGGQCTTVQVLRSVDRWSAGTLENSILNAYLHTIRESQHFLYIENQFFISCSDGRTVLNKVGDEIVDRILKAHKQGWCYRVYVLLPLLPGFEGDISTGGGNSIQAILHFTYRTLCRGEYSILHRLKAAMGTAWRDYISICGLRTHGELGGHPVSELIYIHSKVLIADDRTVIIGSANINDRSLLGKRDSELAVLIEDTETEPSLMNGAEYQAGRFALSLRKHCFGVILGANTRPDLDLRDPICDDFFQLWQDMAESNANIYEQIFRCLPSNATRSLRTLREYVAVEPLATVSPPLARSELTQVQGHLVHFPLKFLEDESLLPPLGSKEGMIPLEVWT
Chain of Glycogen synthase kinase-3 beta (P49841 whole entry): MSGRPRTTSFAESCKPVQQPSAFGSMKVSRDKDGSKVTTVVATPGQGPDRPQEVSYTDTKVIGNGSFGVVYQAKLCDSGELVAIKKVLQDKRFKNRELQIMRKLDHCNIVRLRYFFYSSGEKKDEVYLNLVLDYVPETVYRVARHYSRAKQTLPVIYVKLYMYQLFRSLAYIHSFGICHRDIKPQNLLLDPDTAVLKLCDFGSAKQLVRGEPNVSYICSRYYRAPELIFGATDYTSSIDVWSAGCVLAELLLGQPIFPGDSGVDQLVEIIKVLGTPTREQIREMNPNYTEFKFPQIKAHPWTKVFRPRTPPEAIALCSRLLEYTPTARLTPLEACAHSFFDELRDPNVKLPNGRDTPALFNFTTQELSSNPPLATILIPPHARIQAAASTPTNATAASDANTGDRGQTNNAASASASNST
Chain of Cytochrome P450 2D6 (P10635 whole entry): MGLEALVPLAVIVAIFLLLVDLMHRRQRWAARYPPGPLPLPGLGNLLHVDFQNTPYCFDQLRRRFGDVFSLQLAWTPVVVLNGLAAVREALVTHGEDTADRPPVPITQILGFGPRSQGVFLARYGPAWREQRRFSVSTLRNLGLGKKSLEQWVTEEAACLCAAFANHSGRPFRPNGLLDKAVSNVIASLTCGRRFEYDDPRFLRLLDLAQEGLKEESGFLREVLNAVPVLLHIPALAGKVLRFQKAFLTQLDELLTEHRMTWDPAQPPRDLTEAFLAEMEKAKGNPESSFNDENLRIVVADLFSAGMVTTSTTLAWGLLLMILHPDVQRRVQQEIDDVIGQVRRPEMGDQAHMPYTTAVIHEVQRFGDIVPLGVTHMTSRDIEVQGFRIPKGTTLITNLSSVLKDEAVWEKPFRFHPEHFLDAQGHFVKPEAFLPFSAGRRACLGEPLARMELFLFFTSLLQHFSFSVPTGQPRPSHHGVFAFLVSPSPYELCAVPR
Chain of Beta-2 adrenergic receptor (P07550 whole entry): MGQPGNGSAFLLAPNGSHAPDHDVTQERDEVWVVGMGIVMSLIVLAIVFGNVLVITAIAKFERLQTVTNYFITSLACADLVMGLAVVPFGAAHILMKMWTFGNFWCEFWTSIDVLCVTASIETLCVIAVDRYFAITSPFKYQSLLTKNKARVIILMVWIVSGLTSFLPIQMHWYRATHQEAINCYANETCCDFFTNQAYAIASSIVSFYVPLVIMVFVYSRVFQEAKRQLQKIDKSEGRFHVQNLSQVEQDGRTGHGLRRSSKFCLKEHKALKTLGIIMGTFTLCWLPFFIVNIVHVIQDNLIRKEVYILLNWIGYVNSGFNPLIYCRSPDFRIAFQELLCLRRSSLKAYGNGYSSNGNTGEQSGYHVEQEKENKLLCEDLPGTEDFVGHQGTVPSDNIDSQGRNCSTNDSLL

## COc1ccc(N2C(=O)CC(N(CCc3ccc(OC)c(OC)c3)C(S)=Nc3ccccc3)C2=O)cc1 (stereo not drawn)
HEK293 [1]
  EC50: > 59.6 µM (inactive)
HEK293 [2]
  EC50: > 59.6 µM (inactive)

## O=c1c2cc(Br)ccc2[nH]c(=S)n1Cc1ccccn1
Beta-galactosidase
  EC50: > 40 µM (inactive)
[3]
  IC50: 29.7 µM (not active)

## CC(=O)c1ccc(OCc2cc(C(=O)N(C)CCOc3ccc(C)cc3)no2)cc1
[4]
  EC50: 1.91 µM (active)

## C=CCNc1nc(N)c([N+](=O)[O-])c(Nc2ccccc2OC)n1
[5]
  AC50: 0.388 µM (active)
[6]
  EC50: 11.4 µM (active)
[7]
  AC50: 0.0544 µM (active)
[8]
  EC50: 14.2 µM (active)
[9]
  EC50: 11.7 µM (active)

## c1ccc2c(CSc3nnc(-c4ccncc4)o3)cccc2c1
[5]
  AC50: 2.93 µM (active)
[7]
  AC50: 0.143 µM (active)
Cytochrome P450 2D6
  AC50: 0.501 µM (inconclusive)
Cytochrome P450 1A2
  AC50: 3.16 µM (inconclusive)

## NC1(C(=O)O)CSSC1
[10]
  AC50: 14.5 µM (active)
HEK293 [1]
  EC50: > 59.8 µM (inactive)
HEK293 [2]
  EC50: > 59.8 µM (inactive)

## C[C@H](CN1CCC2(CC1)C(=O)NCN2c1ccccc1)NC(=O)c1cc(Br)c(Br)o1
Phospholipase D2
  IC50: 2.3 µM (active)
Phospholipase D1
  IC50: 0.33 µM (active)

## COc1ccc(CNc2cc3n(c(=O)n2)CCc2cc(OC)c(OC)cc2-3)cc1
Hexokinase HKDC1
  IC50: > 80 µM (inactive)
Hexokinase-1
  IC50: > 80 µM (inactive)

## O=C(NCCN1CCC(n2c(=O)[nH]c3ccc(F)cc32)CC1)c1cccc2c1C(=O)c1ccccc1-2
Phospholipase D2
  IC50: 0.17 µM (active)
Phospholipase D1
  IC50: 0.007 µM (active)

## O=S(=O)(Nc1cccc2ccccc12)c1ccc(Cl)cc1
Hexokinase HKDC1
  IC50: > 80 µM (inactive)
Hexokinase-1
  IC50: > 80 µM (inactive)

## Cc1[nH]n(C(N)=S)c(=O)c1/N=N/c1ccc([N+](=O)[O-])cc1Cl
Beta-galactosidase
  EC50: > 40 µM (inactive)
[3]
  IC50: > 40 µM (not active)

## OC[C@H]1O[C@@H](n2cnc3cc(Cl)c(Cl)cc32)[C@H](O)[C@@H]1O [DICHLORORIBOBENZIMIDAZOLE]
[11]
  AC50: 3.76 µM (active)
